{"source": "patent US10919926B2", "about": "“Compound or salt thereof, natural killer T cell activator, and pharmaceutical composition” (KEIO UNIVERSITY, priority 2016, dated 2021)", "origin": "cited, not measured here", "test_system": "RBL-CD1d cells and NKT hybridoma 2E10 cells", "details": "previously known"}
{"smiles": "CCCCCCCCCCCCCCCCCCCCCCCCCC(=O)N[C@@H](CO[C@H]1O[C@H](CO)[C@H](O)[C@H](O)[C@H]1O)[C@H](O)[C@H](O)CCCCCCCCCCCCCC", "note": "[α-GalCer, α-galactosylceramide]", "values": [{"measurement": "cytokine-inducing capacity compared with β-GalCer and C19", "value": "higher than β-GalCer and C19"}]}
